Consider two substances from patent publication US7105725B2, “Pathogen resistant transgenic plants expressing CEMA or CEMA-related peptides” (University of Victoria Innovation and Development …, priority 1999, dated 2006).

The test system of assay [1] is E. coli. In words: anti-bacterial assay (colony count after 4 h with serially diluted peptide). In kind it is cell-based, Escherichia coli DH5α. As to the method: The antibacterial activity of a given CEMA and/or CEMA-related peptide can be assessed conveniently by determining the ability of the peptide to inhibit the growth of a pectinolytic bacterial strain such as Erwinia carotovora or even Escherichia coli DH5α. The activity of a given peptide is determined by serially diluting the peptide in Luria-Bertaini (LB) medium and 100-μL aliquots of the resulting titers into wells of a 96-well microtiter plate. A fresh bacterial culture (˜0.3 A550) is then grown on LB medium (1% w/v tryptone and 0.5% w/v yeast extract) and diluted to 10^−2 in LB to represent approximately 10^4–10^5 colony forming units (CFU)mL^−1. 10 μL of the bacterial culture are then inoculated into each well containing the peptide and the samples are incubated at 37° C. for 4 hours. The well contents are then diluted in LB, plated on LB agar, and incubated overnight at an appropriate temperature. […] The colonies are counted, and the antibacterial activity of the peptide under test is determined by comparison to the control plate.
The CEMA or CEMA-related peptide is determined to have biological activity if, under the conditions of this assay, the peptide is capable of inhibiting bacterial growth by at least 10% (compared to the control) at a concentration of 7 μg per mL (i.e., at this concentration, the number of bacterial colonies is no more than 90% that of the control plate).

In assay [2] the test system is susceptible microorganisms. The conditions noted are these: cited from earlier work.

In the case of KWKLFKKIGIGAVLKVLTTGLPALKLTK [CEMA], the “concentration that kills 50% of bacterial cells” value in assay [1] stood at 4.5 µg/mL.
Turning to mellitin, in assay [2], the antimicrobial activity entry is listed as “potent antimicrobial activity”.
